# Literature values in PMC9146695, “Globularia alypum L. and Related Species: LC-MS Profiles and Antidiabetic, Antioxidant, Anti-Inflammatory, Antibacterial and Anticancer Potential” (Pharmaceuticals, 2022).
# Where two headings read alike, the source gives them in different places.
# Columns and labels:
# [1] = system: HT-29 human colon adenocarcinoma cells; parameters: method as in doi:10.1007/s00044-015-1500-z; settings: cited from earlier work
# [2] = cited from earlier work
# α-glucosidase = settings: cited from earlier work
# E. faecalis = settings: range given for both compounds; cited from earlier work
# E. coli = system: E. coli; parameters: method as in doi:10.1016/j.sajb.2010.04.010; settings: range given for both compounds; cited from earlier work
# P. aeruginosa = settings: given for both compounds; cited from earlier work
# S. aureus = settings: cited from earlier work
# [3] = system: B. subtilis, B. cereus and S. aureus; parameters: method as in earlier work; settings: cited from earlier work
# [4] = constituents of G. alypum and standards, read-out: DPPH radical scavenging IC50
# [5] = isolated compounds of Clerodendrum bungei
smiles,measurement,setting,value
"CC(=O)OCC1=C[C@H](O)[C@@H]2C(C(=O)O)=CO[C@@H](O[C@@H]3O[C@H](CO)[C@@H](O)[C@H](O)[C@H]3O)[C@H]12 [asperulosidic acid, Asperulosidic acid]",IC50 HT-29 cell viability,[1],6.1 µg/mL
Cc1cc(C(C)(C)C)c(O)c(C(C)(C)C)c1 [butylated hydroxytoluene],IC50,[2]; [4],30 µM
"O=C(/C=C/c1ccc(O)c(O)c1)O[C@H]1[C@H](O)[C@@H](O)[C@H](OCCc2ccc(O)c(O)c2)O[C@@H]1CO [calceolarioside A, Calceolarioside A (Desrhamnosyl verbascoside)]",IC50,[2]; read-out: DPPH IC50,22.9 µM
"O=C(/C=C/c1ccc(O)c(O)c1)OC[C@H]1O[C@@H](OCCc2ccc(O)c(O)c2)[C@H](O)[C@@H](O)[C@@H]1O [calceolarioside B, Calceolarioside B (Desrhamnosyl isoverbascoside)]",IC50,[2]; read-out: DPPH IC50,26.2 µM
OCCc1ccc(O)c(O)c1 [hydroxytyrosyl moiety],IC50,α-glucosidase,150 µM
"C[C@@H]1O[C@@H](O[C@@H]2[C@@H](O)[C@H](OCCc3ccc(O)c(O)c3)O[C@H](COC(=O)/C=C/c3ccc(O)c(O)c3)[C@H]2O)[C@H](O)[C@H](O)[C@H]1O [isoverbascoside, Isoverbascoside (Isoacteoside)]",IC50,α-glucosidase; [5],100 µM
same,MIC against E. faecalis,E. faecalis,100 to 150 µg/mL
same,MIC against E. coli,E. coli,100 to 250 µg/mL
same,MIC against P. aeruginosa,P. aeruginosa,250 µg/mL
same,"MIC, anti-staphylococcal activity",S. aureus,130 µg/mL
"COc1cc(/C=C/C(=O)O[C@H]2[C@H](O[C@@H]3O[C@@H](C)[C@H](O)[C@@H](O)[C@H]3O)[C@@H](O)[C@H](OCCc3ccc(O)c(O)c3)O[C@@H]2CO)ccc1O [leucosceptoside A, Leucosceptoside A]",IC50,α-glucosidase; [5],700 µM
O=c1cc(-c2ccc(O)c(O)c2)oc2cc(O[C@@H]3O[C@H](CO)[C@@H](O)[C@H](O)[C@H]3O)cc(O)c12 [luteolin 7-O-glucoside],"MIC against B. subtilis, B. cereus and S. aureus",[3],50 to 90 µg/mL
O=c1cc(-c2ccc(O)c(O)c2)oc2cc(O)cc(O)c12 [luteolin],IC50,α-glucosidase; compounds from Origanum majorana leaves,> 500 µM
O=c1c(O)c(-c2ccc(O)c(O)c2)oc2cc(O)cc(O)c12 [quercetin],IC50,[2]; [4],7.8 µM
"O=c1cc(-c2ccc(O)cc2)oc2c([C@@H]3O[C@H](CO)[C@@H](O)[C@H](O)[C@H]3O)c(O)c([C@@H]3O[C@H](CO)[C@@H](O)[C@H](O)[C@H]3O)c(O)c12 [vicenin-2, Vicenin-2 (Apigenin-6,8-di-C-glucoside)]",IC50,α-glucosidase,271 µM
